Results on one compound are retold here after patent US20070078262A1, “Thiomorpholino steroid compounds, the use thereof for the preparation of meiosis-regulating medicaments and method for the preparation thereof” (SCHERING AKTIENGESELLSCHAFT, priority 2003, published 2007).

≈ marks a conversion by molar mass, not a printed value.

Data set [1] has as its system Cumulus Enclosed Oocytes (CEOs). Briefly: Cumulus enclosed oocyte assay (meiosis activation in Hx-medium). The data set is classed as cell-based, mice (C57BL/6J×DBA/2J F1). The source says:
Activation of MI arrested oocytes can be assessed by the disappearance of the germinal vesicle (GV). The disappearance of the GV, called germinal vesicle breakdown (GVB) is followed by the extrusion of the first polar body (PB) (C. Grøndahl, J. L. Ottesen, M. Lessi, P. Faarup, A. Murray, F C Grønvald, C. Hegele-Hartung, I. Ahnfelt-Rønne, “Meiosis-activating sterol promotes resumption of meiosis in mouse oocytes cultured in vitro in contrast to related oxysterols”, Biol. Reprod., 58, 1297-1302 (1998); C. Hegele-Hartung, J. Kuhnke, M. Lessi, C. Grøndahl, J. Ottesen, H. M. Beier, S. Eisner, U. Eichenlaub-Ritter, “Nuclear and cytoplasmic maturation of mouse oocytes after treatment with synthetic meiosis-activating sterol in vitro”, Biol. Reprod., 61, 1362-1372 (1999)).
Cumulus Enclosed Oocytes (CEOs) were obtained from immature female mice (C57BL/6J×DBA/2J F1) weighing 13-16 grams, that were kept under controlled temperature (20-22° C.), light (lights on 06:00-18:00) and relative humidity (50-70%). The mice received an intra-peritoneal injection of 0.2 ml gonadotropins containing 20 IU FSH. 48 hours later the animals were killed by cervical dislocation. The ovaries were dissected out and the oocytes were isolated in Hx-medium (see below) under a stereomicroscope by manual rupture of the follicles using a pair of 27-gauge needles. Cumulus enclosed oocytes displaying an intact germinal vesicle were placed in α-minimum essential medium (α-MEM without ribonucleosides supplemented with 8 mg/ml Human Serum Albumin (HSA), 0.23 mM pyruvate, 2 mM glutamine, 100 IU/ml penicillin and 100 μg/ml streptomycin). To maintain the oocytes in the germinal vesicle stage this medium was supplemented with 3 mM hypoxanthine, designated as Hx-medium.
The CEOs (35-45 CEOs in 0.4 ml Hx-medium) were cultured in a humidified atmosphere of 5% CO2 in air for 24 hours at 37° C. One control well (identical medium with no addition of test compound) was always cultured simultaneously with test wells.
By the end of the culture period the number of CEOs with germical vesicle (GV), germinal vesicle breakdown (GVB) and polar bodies (PB), respectively, were counted. The % GVB, defined as the percentage of CEOs undergoing GVB per total number of CEOs in that well, was calculated as: % GVB=(number of GVB+number of PB/total number of CEOs)×100
The % PB was defined as the percentage of CEOs displaying one extruded polar body per total number of CEOs in that well.
For each compound two experiments were performed and the results compared to Hx-medium as a control and FF-MAS at a concentration of 10 μM.

Data set [2] can be described thus: physchem. The conditions noted are these: water.

With `C[C@H](CN1CCSCC1)[C@H]1CC=C2C3=C(CC[C@@]21C)[C@@]1(C)CC[C@H](O)C(C)(C)[C@@H]1CC3` [Compound IA, (20S)-20-[(thiomorpholin-4-yl)methyl]-4,4-dimethyl-5α-pregna-8,14-dien-3β-ol], the “efficiency of meiosis activation among the compounds tested” value in data set [1] (CEOs in the presence of Hx) was “the most efficient compound tested”. Also, in data set [1] (at 1 μM (p<0.01; n=10), 3 μM (p<0.05; n=7) and 10 μM (p<0.001; n=6)), the “meiosis activation in CEOs monitored by GVB and PB (FIG. 2)” value is “significantly improved meiosis activation”. The compound also came in with a solubility in data set [2] of around 4 µg/mL (≈ 9.01 µM).

Usually solubility stands for how much of the substance goes into solution per volume. A lower solubility goes with little dissolved substance.
